Test results from patent US20160122340A1, “HISTONE DEACETYLASE INHIBITORS BASED ON DERIVATIVES OF TRICYCLIC POLYHYDROACRIDINE AND ANALOGS POSSESSING FUSED SATURATED FIVE-AND-SEVEN-MEMBERED RINGS” (QUIMATRYX, S.L., priority 2013, published 2016).

Tested on: T1, Nuclear Extract from HeLa Cells
T1 construct: 25 ng/μl Nuclear Extract from HeLa Cells: Prepared by high salt extraction of HeLa nuclei (human cervical cancer cell line)
Test: HeLa nuclear extract HDAC activity inhibition
Assay type: biochemical, human
Method: In Vitro Inhibitory Activity of Histone Deacetylase: Human Isoforms HDAC1, 2, 3, 4, 5, 6, 7, 8, 9, 10 and 11 and HeLa Cell Line Nuclear Extract (IC50 Data)
All HDAC assays were performed using acetylated AMC-labeled peptide substrate: • Substrate for isoforms HDAC1, 2, 3, 6, 10, 11 and HeLa nuclear extract assays: Acetylated fluorogenic peptide from p53 residues 379-382 (RHKKAc). • Substrate for isoforms HDAC 4, 5, 7, 9: Fluorogenic Boc-L-Lys(ε-trifluoroacetyl)-AMC. • Substrate for HDAC8 assays: Acetylated fluorogenic peptide from p53 residues 379-382 (RHKAcKAc).
[…] The reactions were carried out in a 96-well microplate for fluorometry in a 50 μl reaction volume. After the deacetylation reaction, Fluor-de-Lys-Developer (BioMol Cat. # KI-105) was added to each well to digest the deacetylated substrate, thus producing the fluorescent signal. The reaction was allowed to develop for 45 minutes at 30° C. with 5% CO2; then the fluorescent signal was measured with an excitation wavelength at 360 nm and an emission wavelength at 460 nm in a microplate-reading fluorometer (GeminiXS; Molecular Devices, Sunnyvale, Calif.). A curve of Deacetylated Standard (Biomol, Cat. # KI-142; made from 100 μM with 1:2 dilution and 10-doses, 6 μl) allowed the conversion of fluorescent signal into micromoles of deacetylated product. All experiments were performed in triplicate. IC50 was calculated by fitting the experimental data to a dose-response curve. DMSO was used as negative control; Trichostatin A (Biomol Cat. # GR-309) was used as positive control inhibitor.

| SMILES | IC50 |
| --- | --- |
| O=C(CCCCCNc1c2c(nc3ccccc13)CCCC2)NO [Example 1, N-hydroxy-6-[(1,2,3,4-tetrahydroacridin-9-yl)amino]hexanamide] | 0.066 µM |
| O=C(CCCCCCNc1c2c(nc3ccccc13)CCC2)NO [Example 3, 7-[(2,3-dihydro-1H-cyclopenta[b]quinolin-9-yl)amino]-N-hydroxyheptanamide] | 0.019 µM |
| O=C(CCCCCCNc1c2c(nc3ccccc13)CCCCC2)NO [Example 4, N-hydroxy-7-[(7,8,9,10-tetrahydro-6H-cyclohepta[b]quinolin-11-yl)amino]heptanamide] | 0.038 µM |
| O=C(CCCCCCNc1c2c(nc3ncccc13)CCCC2)NO [Example 7, N-hydroxy-7-[(6,7,8,9-tetrahydrobenzo[b][1,8]naphthyridin-5-yl)amino]heptanamide] | 0.12 µM |
| O=C(CCCCCNC(=O)c1c2c(nc3ccccc13)CCCC2)NO [Example 10, N-[6-(hydroxyamino)-6-oxohexyl]-1,2,3,4-tetrahydroacridine-9-carboxamide] | 0.85 µM |
| O=C(CCCCCCNC(=O)c1c2c(nc3ccccc13)CCCC2)NO [Example 11, N-[7-(hydroxyamino)-7-oxoheptyl]-1,2,3,4-tetrahydroacridine-9-carboxamide] | 0.42 µM |

Further lines, results first:

| IC50 | SMILES |
| --- | --- |
| 0.023 µM | O=C(CCCCCCNc1c2c(nc3ccccc13)CCCC2)NO [Example 2, N-hydroxy-7-[(1,2,3,4-tetrahydroacridin-9-yl)amino]heptanamide] |
| 0.033 µM | COc1cccc2c(NCCCCCCC(=O)NO)c3c(nc12)CCCC3 [Example 5, N-hydroxy-7-[(5-methoxy-1,2,3,4-tetrahydroacridin-9-yl)amino]heptanamide] |
| 0.095 µM | O=C(CCCCCCNc1c2c(nc3cnccc13)CCCC2)NO [Example 8, N-hydroxy-7-[(6,7,8,9-tetrahydrobenzo[b][1,7]naphthyridin-5-yl)amino]heptanamide] |
